Consider three compounds from patent publication US6610699B2, “Use of L-carnitine and its alkanoyl derivatives in the preparation of medicaments with anticancer activity” (Sigma-Tau Industrie Farmaceutiche Riunite S.p.A., priority 1998, dated 2003).

Data set [1] concerns M109 murine lung cancer. As to the kind of experiment: Growth of M109 murine lung cancer in BALB/c mice. It is filed as in vivo, mouse. The settings on record: for Tumour size, Day 8 / Tumour size, Day 11 / Tumour size, Day 13 / Tumour size, Day 15 / Tumour size, Day 20: taxol 30 mg/kg i.p., ALC 100 mg/kg os; for Tumour size, Day 8: day 8 post-inoculation; for Tumour size, Day 11: day 11 post-inoculation; for Tumour size, Day 13: day 13 post-inoculation; for Tumour size, Day 15: day 15 post-inoculation; for Tumour size, Day 20: day 20 post-inoculation. As for the experimental part: Each ampoule of ALC is dissolved in 4 ml of the solvent provided (solution O). To be precise, 1.6 ml of solution O are brought to 40 ml with sterile buffer solution (PBS, Sigma P-4417) and then administered orally (100 mg/kg/20 ml).
At the time of use, the 12 mg/ml solution is diluted 1:4 with saline in phosphate buffer (PBS) (SIGMA,) and injected i.p. (30 mg/kg/ 10 ml).
Animals: 60 female Balb/c mice weighing 18 g (Harlan).
M109 tumour cells isolated from solid tumour.
The procedure described by Kedar E., B. Ikejiri, G. D. Bannard and R. B. Herberman (Eur. J. Cancer Clin. Oncol. 18; 991: 1982) is adopted with modifications. One Balb/c mouse (donor) was sacrificed by cervical dislocation, and after washing its back with denatured alcohol, the dorsal skin was cut longitudinally into two flaps which were detached to remove the tumour mass. The latter was placed on sterile gauze, where it was freed of connective tissue adhesions and of the necrotic and haemorrhagic parts. The study tissue was placed in a plate containing PBS with Ca^++ and Mg^++ (Gibco) at pH 7.2 and cold, broken down into pieces measuring 2-3 mm and re-suspended in a solution (15 ml solution/g tumour) of PBS with Ca^++ and Mg^++, pH 7.2m containing 2 mg/ml trypsin (type III. 10000 U/mg protein, Sigma-Aldrich), 2 mg/ml collagenase (type I-S 180 U/mg solid, Sigma), 0.2 mg/ml DNAse (type I 1548 U/mg protein. Sigma) and 25 μg/ml gentamicin (Sigma) and incubated at 37° C. for 15 minutes under constant stirring. The cell suspension was then homogenised with the aid of a potter (B. Braun) for 2 minutes, incubated at 37° C. for 10 minutes and aspirated gently a number of times with a syringe with a No. 21 sterile needle. After addition of 30 ml of RPMI-1640 (Eurobio) containing 10% FBS (Eurobio) maintained at 4° C. the cell suspension was filtered on sterile gauze and then centrifuged at 700 g for 10 minutes. The cell pellet was re-suspended gently in RPMI-1640 containing 10% FBS and 0.2 mg/ml DNAse (Sigma) and then centrifuged at 700 g for 10 minutes. The pellet was consecutively subjected to two washings with RPMI-1640; at the end of the last washing, the pellet was re-suspended gently in RPMI-1640 so as to perform the count to establish the cell concentration.
Inoculation conditions: 60 unanaesthetised Balb/c mice weighing approximately 18 g (Harlan) received i.m. injections of 3×10^5 M109 lung cancer cells in 0.1 ml of RPMI-1640 (Sigma) in the right rear paw.
Treatment schedule: for the purposes of evaluating tumour size in the experimental study groups, each consisting of 15 Balb/c mice, 3×10^5 M109 lung cancer cells were inoculated, and the study molecules were administered at the scheduled times. […] The vehicle diluted 1:4 with PBS from the mother solution was administered i.p. on days 8, 10, 12 and 14.
The tumour mass is calculated on the basis of the measurements of the two dimensions (length and width), expressed in mm. according to the following formula: [formula]
If we consider conventionally a tumour density equal to 1, the result is that the tumour volume expressed in mm^3 is equal to the weight of the tumour expressed in mg.

Data set [2] relates to M109 murine lung cancer. The settings on record: for Size of metastases / number of lung metastases (Mean ± SD): day 22 after inoculation.
Procedure: The animals were kept under observation up to day 22 after inoculation of the M109 murine lung cancer cells, and were then sacrificed the lungs removed to determine the number of metastases.
Determination of the number of lung metastases: on day 22 after inoculation of M109 murine lung cancer, the study animals were sacrificed by cervical dislocation. Their lungs were then removed and kept for approximately 5-7 days in 5 ml of Bouin's solution with the following composition: 71% as saturated picric acid solution (Merck), and 24% as 10% formaldehyde (Fluka). When lung metastases were evident, their numbers were counted.
Statistical analysis of the data for tumour size and number of lung metastases was carried out using the non-parametric Mann-Whitney test for unpaired data.
The next data set deals with female BALB/c mice. The experiment in a line: Taxol (i.p.)-induced neutropenia in the mouse, blood cell count. On the procedure: In this model, the amount of circulating neutrophils was measured.
Acetyl L-carnitine inner salt (sterile ampoule), solubilised in water for injectable preparations, was used. Each ampoule of ALC is dissolved in 4 ml of water for injections (Solution O). Two ml of (O) are brought up to 25 ml with sterile PBS (Sigma), so as to have 10 mg/ml for subcutaneous administration (100 mg/kg/ 10 ml); 0.8 ml of (O) are brought to 50 ml with PBS in order to have 2 mg/ml for oral administration (100 mg/kg/50 ml).
At the time of use, the 12 mg/ml solution is diluted 1:4 with saline in phosphate buffer (PBS) (SIGMA,) and injected i.p. (30 mg/kg/10 ml).
The mice are anaesthetised with CO2; blood is taken from the retro-orbital plexus (0.5 ml blood/mouse) and placed in Eppendorf test tubes containing 10 μl of Vister heparin (5000 U/ml). The animals are sacrificed by cervical dislocation. Later, the bone marrow samples are taken.
The instrument is used according to the instructions provided in the operating manual. The blood (25 μl) is taken from the dilutor and brought to a volume of 10 ml with isotonic solution (PLTA Saline, Delcon) in a beaker (dil. 1:400) (Solution A). From Solution A, the dilutor takes 100 μl and brings them to 10 ml (dil. 1:100) in another beaker (Solution B). To Solution A are added 3 drops of lysing agent (Emosol, Delcon), the solution is mixed by hand and left to act for approximately 2 minutes so that the red blood cells are lysed and HGB (haemoglobin) released. Solution A containing the lysing agent is used for the WBC and haemoglobin (HGB) readings. Solution B is used for the RBC and platelet (PLT) readings.
Double readings are done on each sample, and between one sample and the next, the instrument is washed using isotonic solution,
Superfrost plus slides (25×75×1 mm) (Mensel-Glaser), ready for use, are adopted. The blood (8 μl) is deposited on the right-hand side of the slide; another slide, placed at a 45° angle, to the left of the blood, is drawn back until in comes into contact with the drop which spreads rapidly along the contact line between the two slides; the slide is moved forwards with a smooth, rapid movement so as to obtain a thin film of blood. The slide is left to dry in air, stained with Diff-Quick (DADE) dye, according to the attached instructions, and dried again in air.
The slides are immersed in Histolemon solution (Carlo Erba) for 2 sec.; a drop of synthetic mountant (Shandon) os deposited at the centre of the slide and a cover slide is placed over it covering the entire blood smear, taking care not to form bubbles between the two slides. The slides are dried and then the WBC count is performed, up to 100, with an optical microscope, after depositing a drop of cedar oil on the slide.
The quantity of […], assessed using the haemocytometer, is multiplied by the percentage value of the corresponding neutrophil granulocytes of the leukocyte formula. This parameter, divided by 100, expresses the value of neutrophils/mm^3 blood.
Data are expressed as means ±SE. Comparison between the neutrophil granulocyte values obtained for the different groups is done using ANOVA. Abnormal values are subjected to the Dixon test.

[3] abbreviates: 6 hours after last administration (Table 4).
The mark [4] stands for this setting: taxol 30 mg/kg i.p. x4, ALC 100 mg/kg, sacrifice 6 hours after last taxol administration.
The mark [5] stands for this setting: taxol 30 mg/kg i.p. x4 on alternate days, ALC 100 mg/kg, sacrifice 6 hours after last taxol administration.
Setting [6] is: taxol i.p., sacrifice 3 days after last taxol administration.
Setting [7] is: three days after last administration (Table 5).

For `CC(=O)O[C@H]1C(=O)[C@@]2(C)[C@H]([C@H](OC(=O)c3ccccc3)[C@]3(O)C[C@H](OC(=O)[C@H](O)[C@@H](NC(=O)c4ccccc4)c4ccccc4)C(C)=C1C3(C)C)[C@]1(OC(C)=O)CO[C@@H]1C[C@@H]2O` [Taxol, paclitaxel, reference compound], in the data set on M109 murine lung cancer [1], the “Tumour size, Day 8” value was 539 mm^3; the “Tumour size, Day 11” value is 662 ± mm^3; the “Tumour size, Day 13” value is given as 622 ± mm^3; the “Tumour size, Day 15” value is recorded as 857 ± mm^3. For the same compound, the “Tumour size, Day 20” value with M109 murine lung cancer [1] is reported as 1085 ± mm^3. In the data set with M109 murine lung cancer [2], the Size of metastases entry was “S (S = Small (<1 mm diam))” and the “number of lung metastases (Mean ± SD)” value is given as “**9 ± 7.3”. In the data set with female BALB/c mice (mouse, in vivo), the “neutrophil granulocytes vs vehicle” value is on record as −64% and the reduction in neutrophils was determined as 98%. Moreover, in the data set with female BALB/c mice (mouse, in vivo, ip), the Absolute neutrophils entry was “****250 ± /mm^3”, the Lymphocytes is listed as 95.5%, the Neutrophils was 4.5% and the WBC came to 5855 Mm^3.
With `CC(=O)O[C@H](CC(=O)[O-])C[N+](C)(C)C` [ALC, acetyl L-carnitine], the “effect on the anticancer action of taxol, inhibition of the tumour mass (in words)” value in the data set on M109 murine lung cancer [1] (ALC 100 mg/kg os with taxol 30 mg/kg i.p.) is “does not interfere with the anticancer action of taxol”. In addition, the “effect on the formation of lung metastases (in words)” value with M109 murine lung cancer [2] (ALC 100 mg/kg os) is “mild inhibitory effect”. Besides, the “changes in neutrophils compared to vehicle alone or untreated animals (in words)” value (shortened to “changes in neutrophils”) in the data set with female BALB/c mice (setting [3]) and with female BALB/c mice (setting [7]) was “no changes” throughout. The “polymorphonucleates, change under taxol with acetyl L-carnitine” value is on record as −23% with female BALB/c mice (acetyl L-carnitine 100 mg/kg oral (os) with taxol 30 mg/kg i.p. x4) and 8-43% in the data set on female BALB/c mice (acetyl L-carnitine 100 mg/kg subcutaneous (sc) with taxol 30 mg/kg i.p. x4). Moreover, the Absolute neutrophils in the data set with female BALB/c mice (setting [4]) is recorded as 708 ± /mm^3; in the data set on female BALB/c mice (setting [6]), 691 ± /mm^3. Further, the Lymphocytes with female BALB/c mice (setting [4]) is on record as 88.7%; in the data set with female BALB/c mice (setting [6]), 89.9%. Also, the Neutrophils in the data set on female BALB/c mice (setting [4]) was determined as 11.2%; in the data set with female BALB/c mice (setting [6]), 10.1%. In addition, the values for the WBC with female BALB/c mice (setting [5]) and with female BALB/c mice (setting [6]) were 6452 Mm^3 and 6920 Mm^3, respectively.
As for `CC(=O)O[C@H](CC(=O)[O-])C[N+](C)(C)C` [Vehicle + ALC, acetyl L-carnitine], in the data set on M109 murine lung cancer [1], the “Tumour size, Day 8” value stood at 567 mm^3; the “Tumour size, Day 11” value worked out at 959 mm^3; the “Tumour size, Day 13” value amounted to 1289 mm^3; the “Tumour size, Day 15” value is reported as 1779 ± mm^3. Moreover, the “Tumour size, Day 20” value with M109 murine lung cancer [1] turned out to be 2251 mm^3. Moreover, in the data set with M109 murine lung cancer [2], the Size of metastases entry is listed as “M, S” and the “number of lung metastases (Mean ± SD)” value is “**77 ± 13.2”. The “changes in neutrophils” value in the data set with female BALB/c mice (setting [3]) is “no changes”. Further, in the data set with female BALB/c mice (setting [4]), the Absolute neutrophils is reported as 511 ± /mm^3, the Lymphocytes is 91.5% and the Neutrophils was 8.5%. In the data set with female BALB/c mice (setting [5]), this compound returned a WBC of 5950 Mm^3. In addition, in the data set with female BALB/c mice (setting [6]), the Absolute neutrophils is 625 ± /mm^3, the Lymphocytes came to 89.2%, the Neutrophils stood at 10.7% and the WBC is given as 6067 Mm^3. Moreover, the “changes in neutrophils” value in the data set on female BALB/c mice (setting [7]) is given as “no changes”.
